Measured values published in paper PMC10999558, “Analyzing resistome in soil and Human gut: a study on the characterization and risk evaluation of antimicrobial peptide resistance” (Frontiers in Microbiology, 2024).

Tests used:
Format in all cases: cell-based, Escherichia coli
Details in all cases: MHB, 37°C, 24 h, triplicate
[1] = test system: E. coli DH5α; assay: MIC, broth microdilution, E. coli DH5α carrying pUC118 or resistance-conferring plasmids
Experimental: (§1) Escherichia coli DH5α, E. coli BL21(DE3), and E. coli JM109 were utilized in this study.
(§2) The MICs were determined using the broth microdilution method in 96-well microtiter plates ([Wiegand et al., 2008]). In brief, a 1:100 dilution of the mid-exponential phase bacterial culture (OD600 = 0.5), consisting of 5 μL (1 × 10^5 CFU/mL), was introduced into polypropylene 96-well plates. These plates contained a two-fold dilution series of AMP in a total volume of 100 μL MHB per well. The incubation of the plates occurred at 37°C in a humidity chamber. The MIC was identified as the lowest concentration that hindered visible bacterial growth after 24 h of incubation. Each experiment was conducted in triplicate.
(§3) Following validation, the colonies displaying resistance underwent additional testing via MIC assessments for the remaining four AMPs that were not employed during the selection process. This experimental procedure was carried out in triplicate.

[2] = test system: E. coli JM109; assay: MIC, broth microdilution, retransformed E. coli JM109
Experimental: as §1, §2
(§4) Before washing down the colonies, we randomly selected two clones from each plate containing distinct AMP. Colony PCRs were conducted using M13 primer pairs to validate the presence of inserts and determine their sizes. The selected colonies were then subjected to sequencing. The specific details are provided in Supplementary Table S2. Following that, plasmids were isolated using the Plasmid Midiprep Kit (Zomanbio, ZP103) following the manufacturer’s guidelines. After the plasmids were successfully reintroduced into E. coli JM109 and E. coli BL 21(DE3), the MICs of the transformed strains against the AMP used for selection were tested. This testing process was carried out in triplicate.
as §3

[3] = test system: E. coli BL21(DE3); assay: MIC, broth microdilution, retransformed E. coli BL21(DE3)
Experimental: as §1, §2, §4, §3

Question: Polymyxin B [PB] was tested. Which MIC ([1]; E. coli DH5α containing pUC118 plasmids) did it give?
Answer: 0.5 µg/mL

Question: And the MIC ([1]; colony pUC118-DH5α (control, no insert))?
Answer: 0.5 µg/mL

Question: What about the MIC ([1]; colony pUC118-FCST1-DH5α (feces insert 1 selected against colistin)) of the same substance?
Answer: 0.5 µg/mL

Question: What about the MIC ([1]; colony pUC118-FCST2-DH5α (feces insert 2 selected against colistin)) of the same substance?
Answer: 1 µg/mL

Question: What about the MIC ([1]; colony pUC118-FGQ1-DH5α (feces insert 1 selected against melittin)) of the same substance?
Answer: 1 µg/mL

Question: What about the MIC ([1]; colony pUC118-FGQ2-DH5α (feces insert 2 selected against melittin)) of the same substance?
Answer: 1 µg/mL

Question: What about the MIC ([1]; colony pUC118-FIB1-DH5α (feces insert 1 selected against iseganan)) of the same substance?
Answer: 0.5 µg/mL

Question: What about the MIC ([1]; colony pUC118-FIB2-DH5α (feces insert 2 selected against iseganan)) of the same substance?
Answer: 1 µg/mL

Question: And the MIC ([1]; colony pUC118-FPB1-DH5α (feces insert 1 selected against polymyxin B))?
Answer: 1 µg/mL

Question: And the MIC ([1]; colony pUC118-FPB2-DH5α (feces insert 2 selected against polymyxin B))?
Answer: 1 µg/mL

Question: What about the MIC ([1]; colony pUC118-FSA1-DH5α (feces insert 1 selected against cathelicidin-DM)) of the same substance?
Answer: 0.5 µg/mL

Question: And the MIC ([1]; colony pUC118-FSA2-DH5α (feces insert 2 selected against cathelicidin-DM))?
Answer: 1 µg/mL

Question: What about the MIC ([1]; colony pUC118-SCST1-DH5α (soil insert 1 selected against colistin)) of the same substance?
Answer: 0.5 µg/mL

Question: And the MIC ([1]; colony pUC118-SCST2-DH5α (soil insert 2 selected against colistin))?
Answer: 0.5 µg/mL

Question: And the MIC ([1]; colony pUC118-SGQ1-DH5α (soil insert 1 selected against melittin))?
Answer: 0.5 µg/mL

Question: And the MIC ([1]; colony pUC118-SGQ2-DH5α (soil insert 2 selected against melittin))?
Answer: 0.5 µg/mL

Question: And the MIC ([1]; colony pUC118-SIB1-DH5α (soil insert 1 selected against iseganan))?
Answer: 0.5 µg/mL

Question: And the MIC ([1]; colony pUC118-SIB2-DH5α (soil insert 2 selected against iseganan))?
Answer: 0.5 µg/mL

Question: And the MIC ([1]; colony pUC118-SPB1-DH5α (soil insert 1 selected against polymyxin B))?
Answer: 1 µg/mL

Question: And the MIC ([1]; colony pUC118-SPB2-DH5α (soil insert 2 selected against polymyxin B))?
Answer: 2 µg/mL

Question: And the MIC ([1]; colony pUC118-SSA1-DH5α (soil insert 1 selected against cathelicidin-DM))?
Answer: 0.5 µg/mL

Question: What about the MIC ([1]; colony pUC118-SSA2-DH5α (soil insert 2 selected against cathelicidin-DM)) of the same substance?
Answer: 0.5 µg/mL

Question: And the MIC ([2]; colony pUC118-FCST1-JM109 (feces insert 1 selected against colistin))?
Answer: 0.25 µg/mL

Question: What about the MIC ([2]; colony pUC118-FCST2-JM109 (feces insert 2 selected against colistin)) of the same substance?
Answer: 1 µg/mL

Question: What about the MIC ([2]; colony pUC118-FGQ1-JM109 (feces insert 1 selected against melittin)) of the same substance?
Answer: 0.5 µg/mL

Question: What about the MIC ([2]; colony pUC118-FGQ2-JM109 (feces insert 2 selected against melittin)) of the same substance?
Answer: 0.5 µg/mL

Question: What about the MIC ([2]; colony pUC118-FIB1-JM109 (feces insert 1 selected against iseganan)) of the same substance?
Answer: 0.25 µg/mL

Question: And the MIC ([2]; colony pUC118-FIB2-JM109 (feces insert 2 selected against iseganan))?
Answer: 0.5 µg/mL

Question: What about the MIC ([2]; colony pUC118-FPB1-JM109 (feces insert 1 selected against polymyxin B)) of the same substance?
Answer: 0.5 µg/mL

Question: And the MIC ([2]; colony pUC118-FPB2-JM109 (feces insert 2 selected against polymyxin B))?
Answer: 0.5 µg/mL

Question: What about the MIC ([2]; colony pUC118-FSA1-JM109 (feces insert 1 selected against cathelicidin-DM)) of the same substance?
Answer: 0.25 µg/mL

Question: And the MIC ([2]; colony pUC118-FSA2-JM109 (feces insert 2 selected against cathelicidin-DM))?
Answer: 0.5 µg/mL

Question: What about the MIC ([2]; colony pUC118-JM109 (control, no insert)) of the same substance?
Answer: 0.25 µg/mL

Question: And the MIC ([2]; colony pUC118-SCST1-JM109 (soil insert 1 selected against colistin))?
Answer: 0.25 µg/mL

Question: And the MIC ([2]; colony pUC118-SCST2-JM109 (soil insert 2 selected against colistin))?
Answer: 0.25 µg/mL

Question: What about the MIC ([2]; colony pUC118-SGQ1-JM109 (soil insert 1 selected against melittin)) of the same substance?
Answer: 0.25 µg/mL

Question: And the MIC ([2]; colony pUC118-SGQ2-JM109 (soil insert 2 selected against melittin))?
Answer: 0.25 µg/mL

Question: And the MIC ([2]; colony pUC118-SIB1-JM109 (soil insert 1 selected against iseganan))?
Answer: 0.25 µg/mL

Question: And the MIC ([2]; colony pUC118-SIB2-JM109 (soil insert 2 selected against iseganan))?
Answer: 0.25 µg/mL

Question: What about the MIC ([2]; colony pUC118-SPB1-JM109 (soil insert 1 selected against polymyxin B)) of the same substance?
Answer: 0.5 µg/mL

Question: And the MIC ([2]; colony pUC118-SPB2-JM109 (soil insert 2 selected against polymyxin B))?
Answer: 0.5 µg/mL

Question: And the MIC ([2]; colony pUC118-SSA1-JM109 (soil insert 1 selected against cathelicidin-DM))?
Answer: 0.25 µg/mL

Question: And the MIC ([2]; colony pUC118-SSA2-JM109 (soil insert 2 selected against cathelicidin-DM))?
Answer: 0.25 µg/mL

Question: And the MIC ([3]; colony pUC118-BL21(DE3) (control, no insert))?
Answer: 1 µg/mL

Question: And the MIC ([3]; colony pUC118-FCST1-BL21(DE3) (feces insert 1 selected against colistin))?
Answer: 1 µg/mL

Question: And the MIC ([3]; colony pUC118-FCST2-BL21(DE3) (feces insert 2 selected against colistin))?
Answer: 2 µg/mL

Question: And the MIC ([3]; colony pUC118-FGQ1-BL21(DE3) (feces insert 1 selected against melittin))?
Answer: 2 µg/mL

Question: What about the MIC ([3]; colony pUC118-FGQ2- BL21(DE3) (feces insert 2 selected against melittin)) of the same substance?
Answer: 2 µg/mL

Question: What about the MIC ([3]; colony pUC118-FIB1-BL21(DE3) (feces insert 1 selected against iseganan)) of the same substance?
Answer: 1 µg/mL

Question: What about the MIC ([3]; colony pUC118-FIB2-BL21(DE3) (feces insert 2 selected against iseganan)) of the same substance?
Answer: 2 µg/mL

Question: And the MIC ([3]; colony pUC118-FPB1-BL21(DE3) (feces insert 1 selected against polymyxin B))?
Answer: 4 µg/mL

Question: And the MIC ([3]; colony pUC118-FPB2-BL21(DE3) (feces insert 2 selected against polymyxin B))?
Answer: 2 µg/mL

Question: And the MIC ([3]; colony pUC118-FSA1-BL21(DE3) (feces insert 1 selected against cathelicidin-DM))?
Answer: 1 µg/mL

Question: And the MIC ([3]; colony pUC118-FSA2-BL21(DE3) (feces insert 2 selected against cathelicidin-DM))?
Answer: 4 µg/mL

Question: What about the MIC ([3]; colony pUC118-SCST1-BL21(DE3) (soil insert 1 selected against colistin)) of the same substance?
Answer: 1 µg/mL

Question: What about the MIC ([3]; colony pUC118-SCST2-BL21(DE3) (soil insert 2 selected against colistin)) of the same substance?
Answer: 1 µg/mL

Question: What about the MIC ([3]; colony pUC118-SGQ1-BL21(DE3) (soil insert 1 selected against melittin)) of the same substance?
Answer: 1 µg/mL

Question: And the MIC ([3]; colony pUC118-SGQ2-BL21(DE3) (soil insert 2 selected against melittin))?
Answer: 1 µg/mL

Question: What about the MIC ([3]; colony pUC118-SIB1-BL21(DE3) (soil insert 1 selected against iseganan)) of the same substance?
Answer: 1 µg/mL

Question: And the MIC ([3]; colony pUC118-SIB2-BL21(DE3) (soil insert 2 selected against iseganan))?
Answer: 1 µg/mL

Question: What about the MIC ([3]; colony pUC118-SPB1-BL21(DE3) (soil insert 1 selected against polymyxin B)) of the same substance?
Answer: 2 µg/mL

Question: And the MIC ([3]; colony pUC118-SPB2-BL21(DE3) (soil insert 2 selected against polymyxin B))?
Answer: 2 µg/mL

Question: And the MIC ([3]; colony pUC118-SSA1-BL21(DE3) (soil insert 1 selected against cathelicidin-DM))?
Answer: 1 µg/mL

Question: What about the MIC ([3]; colony pUC118-SSA2-BL21(DE3) (soil insert 2 selected against cathelicidin-DM)) of the same substance?
Answer: 1 µg/mL
